This data set in a line: cn = amount concentration of the nth substance listed, in mol/dm3. The following applies: 298.15 K, 101 kPa, Liquid, c1 = 1.

Molecules are shown by their SMILES. Numbers after ± are expanded uncertainties.

In the case of `CNCC(=O)O` [sarcosine] + O, under “Sing-around technique in a fixed-path interferometer”, the speed of sound amounted to 1561.4 ± 1.3 m/s. In addition, for the setting “Vibrating tube method”, the mass density worked out at 1023.26 ± 0.12 kg/m3.

Values taken from the NIST ThermoML archive (doi:10.1016/j.jct.2013.09.009).
